Source: patent US10702528B2, “Hepatitis B antiviral agents” (Enanta Pharmaceuticals, Inc., priority 2015, dated 2020)
Where two headings read alike, the source gives them in different places.

Legend:
[1] = system: HBV; experiment: HepAD38 antiviral screen: reduction of viral product accumulation (virion DNA by qPCR; HBsAg/HBeAg ELISA); type: cell-based; settings: Hepatitis B virus
Protocol: (§1) Methods: HepAD38 cells are maintained as previously reported (Ladner et al, Antimicrob. Agents Chemother. 1997, […], 1715). Briefly, cells are passaged upon attaining confluency in DMEM/F12 media in the presence of 10% FBS, Penn/Strep, 250 μg/mL G418, and 1 μg/ml tetracycline. Novel compounds are screened by first washing cells three times with PBS to remove tetracycline, and plating in 96 well plates at 35,000 cells/well. Compounds dissolved in DMSO are then diluted 1:200 into wells containing cells. Five days after compound addition, material is harvested for analysis. For an extended 8 day analysis, cells are plated and treated as described above, but media and compound are refreshed on d2 and d5 post initial treatment.
On harvest day, virion DNA is obtained by lysing with Sidestep Lysis and Stabilization Buffer and then quantified via quantitative real time PCR. Commercially available ELISA kits are used to quantitate the viral proteins HBsAg (Alpco) or HbeAg (US Biological) by following the manufacturer's recommended protocol after diluting samples to match the linear range of their respective assays. Irrespective of readout, compound concentrations that reduce viral product accumulation in the cell lysates or supernatants by relative to no drug controls (EC50) are reported; EC50 ranges are as follows: A<1 μM; B 1-10 μM; C>10 μM.

[2] = Compound toxicity by ATPlite 1 Step (total ATP levels) in HepAD38 cells; type: cell-based; settings: human, day of harvest, concentration reducing total ATP levels by 50% relative to no drug controls
Protocol: as §1
Additionally, on day of harvest, compound toxicity is evaluated by treating cells with ATPlite 1 Step according to the manufacturer's protocol. Compound concentrations that reduce total ATP levels in wells by 50% relative to no drug controls (CC50) are reported; CC50 ranges are as follows: A>30 μM; B 10-30 μM; C<10 μM.

[3] = 120 h, HepAD38 cells, harvest five days after compound addition, reduction of viral product accumulation relative to no drug controls, read-out: HepAD38 EC50

SMILES	EC50 [1, 3]	CC50 [2]	EC50 ([1]; HePAD38, 120 h, read-out: HepAD38 EC50 (μM))
CCOC(=O)C1=CNC(c2nccs2)=NC1(C)c1ccc(F)cc1 (stereo not shown) [Example 49]	1 to 10 µM	–	–
COCC1=C(c2ccn(C)n2)C(c2ccc(F)cc2Cl)N=C(c2nccs2)N1 (stereo not shown) [Example 35]	< 1 µM	> 30 µM	–
Cn1ccc(C2=CNC(c3nccs3)=NC2c2ccc(F)cc2Cl)n1 (stereo not shown) [Example 36]	< 1 µM	> 30 µM	–
CC1=C(c2cc(C)no2)C(c2ccc(F)cc2Cl)N=C(c2nccs2)N1 (racemic) [Example 15]	< 1 µM	> 30 µM	–
CC1=C(c2ccn(C)n2)[C@H](c2ccc(F)cc2Cl)N=C(c2nccs2)N1 (single isomer, unassigned) [Example 16b]	< 1 µM	> 30 µM	–
CCOC(=O)C1=C(C)NC(N2CCCC2)=NC1c1ccc(F)cc1Cl (stereo not shown) [Example 30]	> 10 µM	> 30 µM	–
Cn1ccc(C2=C(CC(=O)O)NC(c3nccs3)=NC2c2ccc(F)cc2Cl)n1 (stereo not shown) [Example 46]	> 10 µM	10 to 30 µM	–
CCOC(=O)C1=CNC(c2nccs2)=NC1(C)c1ccc(F)cc1Cl (stereo not shown) [Example 57]	1 to 10 µM	–	–
CC1=C(CO)C(c2ccc(F)cc2Cl)N=C(c2nccs2)N1 (racemic) [Example 9]	1 to 10 µM	> 30 µM	–
CCOC(=O)C1=C(CC2CC(F)(F)C[C@H]2C(=O)O)NC(c2nccs2)=NC1C1CCCC1 (stereo partly shown) [Example 7]	1 to 10 µM	> 30 µM	–
Cn1ccc(C2=C(CN3C4CCC3COC4)NC(c3nccs3)=N[C@H]2c2ccc(F)cc2Cl)n1 [Example 52]	< 1 µM	–	–
Cn1ccc(C2=C(CN=[N+]=[N-])NC(c3nccs3)=NC2c2ccc(F)cc2Cl)n1 (stereo not shown) [Example 42]	< 1 µM	> 30 µM	–
CCOC(=O)[C@@H]1CC(F)(F)CN1CC1=C(C(=O)NS(C)(=O)=O)C(c2ccc(F)cc2Cl)N=C(c2nccs2)N1 (stereo partly shown) [Example 4]	> 10 µM	> 30 µM	–
COC(=O)[C@@H]1CCC[C@H]1N1C[C@@H]2CN(CC3=C(c4ccn(C)n4)[C@H](c4ccc(F)cc4Cl)N=C(c4nccs4)N3)CCN2C1=O [Example 55]	1 to 10 µM	–	–
CC1=C(c2nn[nH]n2)C(c2ccc(F)cc2Cl)N=C(c2nccs2)N1 (stereo not shown) [Example 27]	> 10 µM	> 30 µM	–
COC(=O)CC1=C(c2ccn(C)n2)C(c2ccc(F)cc2Cl)N=C(c2nccs2)N1 (stereo not shown) [Example 44]	1 to 10 µM	> 30 µM	–
CC1=C(c2ncco2)[C@@H](c2ccc(F)cc2Cl)N=C(c2nccs2)N1 (single isomer, unassigned) [Example 13a]	1 to 10 µM	> 30 µM	–
CCOP(=O)(OCC)C1=C(C)NC(c2nccs2)=NC1c1ccc(F)cc1Cl (racemic) [Example 26]	–	> 30 µM	> 10 µM
C=CCOC(=O)C1=CNC(c2nccs2)=NC1(C)c1ccc(F)cc1 (stereo not shown) [Example 51]	1 to 10 µM	–	–
CC1=C(c2nccs2)C(c2ccc(F)cc2Cl)N=C(c2nccs2)N1 (racemic) [Example 14]	< 1 µM	> 30 µM	–

SMILES	EC50 [1, 3]	CC50 [2]	EC50 ([1]; HePAD38, 120 h, read-out: HepAD38 EC50 (μM))
CC1=C(c2ncco2)C(C)(c2ccc(F)cc2Cl)N=C(c2nccs2)N1 (stereo not shown) [Example 47]	> 10 µM	–	–
CC(=O)C1=C(C)NC(c2nccs2)=NC1c1ccc(F)cc1Cl (racemic) [Example 11]	< 1 µM	> 30 µM	–
CC1=C(c2ncco2)[C@H](c2ccc(F)cc2Cl)N=C(c2nccs2)N1 (single isomer, unassigned) [Example 13b]	< 1 µM	> 30 µM	–
CC1=C(c2ccccc2)C(c2ccc(F)cc2Cl)N=C(c2nccs2)N1 (racemic) [Example 18]	< 1 µM	10 to 30 µM	–
C=CC1=C(C)NC(c2nccs2)=NC1c1ccc(F)cc1Cl (racemic) [Example 12]	< 1 µM	> 30 µM	–
CC1=C(c2ccn(C)n2)C(c2ccc(F)cc2Cl)N=C(c2nccs2)N1 (racemic) [Example 16]	< 1 µM	> 30 µM	–
Cn1ccc(C2=C(CF)NC(c3nccs3)=NC2c2ccc(F)cc2Cl)n1 (stereo not shown) [Example 43]	< 1 µM	> 30 µM	–
CN(C)CC1=C(c2ccn(C)n2)C(c2ccc(F)cc2Cl)N=C(c2nccs2)N1 (stereo not shown) [Example 37]	> 10 µM	10 to 30 µM	–
Cn1ccc(C2=CNC(c3nccs3)=NC2(C)c2ccc(F)cc2)n1 (stereo not shown) [Example 50]	1 to 10 µM	–	–
CNS(=O)(=O)C1=C(C)NC(c2nccs2)=NC1c1ccc(F)cc1Cl (stereo not shown) [Example 28]	> 10 µM	> 30 µM	–
CC1=C(c2ccn(C)n2)C(C)(c2ccc(F)cc2Cl)N=C(c2nccs2)N1 (stereo not shown) [Example 48]	> 10 µM	–	–
CC1=C(S(C)(=O)=O)C(c2ccc(F)cc2Cl)N=C(c2nccs2)N1 (racemic) [Example 25]	> 10 µM	> 30 µM	–
CC1=C(C(=O)N(C)S(C)(=O)=O)C(c2ccc(F)cc2Cl)N=C(c2nccs2)N1 (racemic) [Example 22]	> 10 µM	> 30 µM	–
CC1=C(C#N)C(c2ccc(F)cc2Cl)N=C(c2nccs2)N1 (stereo not shown) [Example 32]	< 1 µM	> 30 µM	–
CC1=C(c2ccccn2)C(c2ccc(F)cc2Cl)N=C(c2nccs2)N1 (racemic) [Example 19]	1 to 10 µM	> 30 µM	–
CC1=C(c2ccn(C)n2)[C@@H](c2ccc(F)cc2Cl)N=C(c2nccs2)N1 (single isomer, unassigned) [Example 16a]	< 1 µM	> 30 µM	–
Cn1ccc(C2=C(CN3CCOCC3)NC(c3nccs3)=N[C@H]2c2ccc(F)cc2Cl)n1 [Example 53]	< 1 µM	–	–
CC1=C(c2nccn2C)C(c2ccc(F)cc2Cl)N=C(c2nccs2)N1 (stereo not shown) [Example 33]	1 to 10 µM	> 30 µM	–
Cn1ccc(C2=C(CN3C4CCC3CC(O)C4)NC(c3nccs3)=N[C@H]2c2ccc(F)cc2Cl)n1 (stereo partly shown) [Example 54]	1 to 10 µM	–	–
CCOC(=O)[C@@H]1CC(F)(F)CN1CC1=C(c2ccn(C)n2)C(c2ccc(F)cc2Cl)N=C(c2nccs2)N1 (stereo partly shown) [Example 39]	< 1 µM	> 30 µM	–

SMILES	EC50 [1, 3]	CC50 [2]	EC50 ([1]; HePAD38, 120 h, read-out: HepAD38 EC50 (μM))
CC1=C(c2ccnn2C)C(c2ccc(F)cc2Cl)N=C(c2nccs2)N1 (racemic) [Example 17]	< 1 µM	> 30 µM	–
CCOC(=O)C1=C(CN2CC(F)(F)C[C@H]2C(=O)NS(C)(=O)=O)NC(c2nccs2)=NC1c1ccc(F)cc1Cl (stereo partly shown) [Example 2]	1 to 10 µM	> 30 µM	–
CC1=C(CN(C)C)C(c2ccc(F)cc2Cl)N=C(c2nccs2)N1 (racemic) [Example 8]	> 10 µM	> 30 µM	–
CCOC(=O)[C@@H]1CC(F)(F)CC1CC1=C(C#N)C(c2ccc(F)cc2Cl)N=C(c2nccs2)N1 (stereo partly shown) [Example 5]	1 to 10 µM	> 30 µM	–
Cn1ccc(C2=C(CO)NC(c3nccs3)=NC2c2ccc(F)cc2Cl)n1 (stereo not shown) [Example 41]	< 1 µM	10 to 30 µM	–
CCOC(=O)C1=C(CC2CCC[C@H]2C(=O)O)NC(c2nccs2)=NC1C1CCCCC1 (stereo partly shown) [Example 6]	> 10 µM	> 30 µM	–
CCOC(=O)C1=C(C)NC(N2CCCC2=O)=NC1c1ccc(F)cc1Cl (stereo not shown) [Example 29]	> 10 µM	> 30 µM	–
CCn1ccc(C2=C(C)NC(c3nccs3)=NC2c2ccc(F)cc2Cl)n1 (stereo not shown) [Example 34]	< 1 µM	> 30 µM	–
Cn1ccc(C2=C(CC#N)NC(c3nccs3)=NC2c2ccc(F)cc2Cl)n1 (stereo not shown) [Example 40]	1 to 10 µM	> 30 µM	–
CCOC(=O)C1=C(CN2CCC[C@H]2C(=O)NS(C)(=O)=O)NC(c2nccs2)=NC1c1ccc(F)cc1Cl (stereo partly shown) [Example 1]	1 to 10 µM	10 to 30 µM	–
COC(=O)/C=C1\NC(c2nccs2)=NC(c2ccc(F)cc2Cl)C1c1ccn(C)n1 (stereo not shown) [Example 45]	1 to 10 µM	10 to 30 µM	–
CC1=C(c2ncccn2)C(c2ccc(F)cc2Cl)N=C(c2nccs2)N1 (racemic) [Example 20]	1 to 10 µM	> 30 µM	–
CCOC(=O)C1=C(CN2CC(F)(F)C[C@H]2C#N)NC(c2nccs2)=NC1c1ccc(F)cc1Cl (stereo partly shown) [Example 3]	< 1 µM	> 30 µM	–
COCC1=C(C)NC(c2nccs2)=NC1c1ccc(F)cc1Cl (racemic) [Example 10]	1 to 10 µM	> 30 µM	–
Cn1ccc(C2=C(CN3CC(F)(F)C[C@H]3C(=O)O)NC(c3nccs3)=NC2c2ccc(F)cc2Cl)n1 (stereo partly shown) [Example 38]	< 1 µM	> 30 µM	–
CCOC(=O)C1=C(C)NC(C(=O)OC)=NC1c1ccc(F)cc1Cl (stereo not shown) [Example 31]	1 to 10 µM	> 30 µM	–
CC1=C(C(=O)NS(C)(=O)=O)C(c2ccc(F)cc2Cl)N=C(c2nccs2)N1 (racemic) [Example 21]	> 10 µM	> 30 µM	–
CC1=C(c2ncco2)C(c2ccc(F)cc2Cl)N=C(c2nccs2)N1 (racemic) [Example 13]	< 1 µM	> 30 µM	–
